Patent publication US10626144B2, “Peptide derivatives and uses thereof” (Nosopharm, priority 2014, dated 2020)
Where two headings read alike, the source gives them in different places. Square brackets hold non-standard residues; d marks the D form. Peptide text beside a SMILES is read from it. * marks the point of attachment. Phe(4-tBu) = CC(C)(C)c1ccc(C[C@H](N)C(=O)O)cc1; Phe(3-Cl) = N[C@@H](Cc1cccc(Cl)c1)C(=O)O; Phe(4-Cl) = N[C@@H](Cc1ccc(Cl)cc1)C(=O)O; Phe(4-I) = N[C@@H](Cc1ccc(I)cc1)C(=O)O; Dab(3S-OH) = NC[C@H](O)[C@H](N)C(=O)O; His(τ-Me) = Cn1cnc(C[C@H](N)C(=O)O)c1; His(π-Me) = Cn1cncc1C[C@H](N)C(=O)O; 2Pal = N[C@@H](Cc1ccccn1)C(=O)O; ΔZArg = N=C(N)NCC/C=C(\N)C(=O)O; aThr = C[C@H](O)[C@H](N)C(=O)O; dOrn = NCCC[C@@H](N)C(=O)O; Pra = C#CC[C@H](N)C(=O)O; NH(CH2)4NH2 = NCCCCN*

What was measured:
[1] = tested on: Acinetobacter baumannii ATCC 19606; experiment: MIC, broth microdilution (CLSI), reference strain; settings: CAMHB
[2] = tested on: Escherichia coli ATCC 25922; experiment: MIC, broth microdilution (CLSI), reference strain; settings: CAMHB
[3] = tested on: Staphylococcus aureus ATCC 13709; experiment: MIC, broth microdilution (CLSI), reference strain; settings: CAMHB
[4] = tested on: Pseudomonas aeruginosa ATCC 27853; experiment: MIC, broth microdilution (CLSI), reference strain; settings: CAMHB
[5] = molecular target: N-type calcium channels (Cav2.2) (Rattus norvegicus (Rat), UniProt Q02294); experiment: biochemical; type: binding
[6] = class symbol, rat cerebral cortex, [125I]ω-conotoxin GVIA 0.001 nM, 30 minutes at room temperature, read-out: IC50 Cav2.2
[7] = value in brackets, rat cerebral cortex, [125I]ω-conotoxin GVIA 0.001 nM, read-out: IC50 Cav2.2

Row | Structure (SMILES) | Ab: MIC Acinetobacter baumannii ATCC 19606 [1] | Ec: MIC Escherichia coli ATCC 25922 [2] | Sa: MIC Staphylococcus aureus ATCC 13709 [3] | Pa: MIC Pseudomonas aeruginosa ATCC 27853 [4] | IC50 [5, 6] [nM] | IC50 [5] [nM] | IC50 [5, 7] [nM]
1 | C[C@H](NC(=O)[C@@H](NC(=O)[C@@H](N)CCCCN)[C@@H](O)CN)C(=O)NCC(=O)N[C@H](CCCN)C(=O)N1CCC[C@H]1C(=O)N[C@@H](Cc1cnc[nH]1)C(=O)N[C@@H](CCCCN)C(=O)N/C(=C\CCNC(=N)N)C(=O)N[C@@H](CCCCN)C(=O)NCCCCN [24.1] (H-K[Dab(3S-OH)]AG[dOrn]PHK[ΔZArg]K-{NH(CH2)4NH2}) | + (≤32 μg/mL) | ++ (≤8 μg/mL) | ++ (≤8 μg/mL) | + (≤32 μg/mL) | < 30 | – | –
2 | C[C@H](NC(=O)[C@@H](NC(=O)[C@@H](N)CCCCN)[C@@H](O)CN)C(=O)NCC(=O)N[C@H](CCCN)C(=O)N1CCC[C@H]1C(=O)N[C@@H](Cc1cncn1C)C(=O)N[C@@H](CCCCN)C(=O)N/C(=C\CCNC(=N)N)C(=O)N[C@@H](CCCCN)C(=O)NCCCCN [24.14] (H-K[Dab(3S-OH)]AG[dOrn]P[His(π-Me)]K[ΔZArg]K-{NH(CH2)4NH2}) | − (>32 μg/mL) | ++ (≤8 μg/mL) | ++ (≤8 μg/mL) | + (≤32 μg/mL) | < 30 | – | –
3 | C[C@H](NC(=O)[C@@H](NC(=O)[C@@H](N)CCCCN)[C@@H](O)CN)C(=O)NCC(=O)N[C@H](CCCN)C(=O)N1CCC[C@H]1C(=O)N[C@@H](Cc1cn(C)cn1)C(=O)N[C@@H](CCCCN)C(=O)N/C(=C\CCNC(=N)N)C(=O)N[C@@H](CCCCN)C(=O)NCCCCN [24.15] (H-K[Dab(3S-OH)]AG[dOrn]P[His(τ-Me)]K[ΔZArg]K-{NH(CH2)4NH2}) | − (>32 μg/mL) | ++ (≤8 μg/mL) | ++ (≤8 μg/mL) | + (≤32 μg/mL) | < 30 | – | –
4 | C[C@H](NC(=O)[C@@H](NC(=O)[C@@H](N)CCCCN)[C@@H](O)CN)C(=O)NCC(=O)N[C@H](CCCN)C(=O)N1CCC[C@H]1C(=O)N[C@@H](Cc1ccccn1)C(=O)N[C@@H](CCCCN)C(=O)N/C(=C\CCNC(=N)N)C(=O)N[C@@H](CCCCN)C(=O)NCCCCN [24.17] (H-K[Dab(3S-OH)]AG[dOrn]P[2Pal]K[ΔZArg]K-{NH(CH2)4NH2}) | − (>32 μg/mL) | ++ (≤8 μg/mL) | ++ (≤8 μg/mL) | − (>32 μg/mL) | < 30 | – | –
5 | C[C@H](NC(=O)[C@@H](NC(=O)[C@@H](N)CCCCN)[C@@H](O)CN)C(=O)NCC(=O)N[C@H](CCCN)C(=O)N1CCC[C@H]1C(=O)N[C@@H](Cc1ccc(O)cc1)C(=O)N[C@@H](CCCCN)C(=O)N/C(=C\CCNC(=N)N)C(=O)N[C@@H](CCCCN)C(=O)NCCCCN [24.20] (H-K[Dab(3S-OH)]AG[dOrn]PYK[ΔZArg]K-{NH(CH2)4NH2}) | − (>32 μg/mL) | ++ (≤8 μg/mL) | ++ (≤8 μg/mL) | − (>32 μg/mL) | < 30 | – | –
6 | C[C@H](NC(=O)[C@@H](NC(=O)[C@@H](N)CCCCN)[C@@H](O)CN)C(=O)NCC(=O)N[C@H](CCCN)C(=O)N1CCC[C@H]1C(=O)N[C@@H](CC(N)=O)C(=O)N[C@@H](CCCCN)C(=O)N/C(=C\CCNC(=N)N)C(=O)N[C@@H](CCCCN)C(=O)NCCCCN [24.22] (H-K[Dab(3S-OH)]AG[dOrn]PNK[ΔZArg]K-{NH(CH2)4NH2}) | − (>32 μg/mL) | ++ (≤8 μg/mL) | ++ (≤8 μg/mL) | − (>32 μg/mL) | < 30 | – | –
7 | C#CC[C@H](NC(=O)[C@@H]1CCCN1C(=O)[C@@H](CCCN)NC(=O)CNC(=O)[C@H](C)NC(=O)[C@@H](NC(=O)[C@@H](N)CCCCN)[C@@H](O)CN)C(=O)N[C@@H](CCCCN)C(=O)N/C(=C\CCNC(=N)N)C(=O)N[C@@H](CCCCN)C(=O)NCCCCN [24.67] (H-K[Dab(3S-OH)]AG[dOrn]P[Pra]K[ΔZArg]K-{NH(CH2)4NH2}) | − (>32 μg/mL) | ++ (≤8 μg/mL) | − (>32 μg/mL) | + (≤32 μg/mL) | < 30 | – | –
8 | C[C@H](NC(=O)[C@@H](NC(=O)[C@@H](N)CCCCN)[C@@H](O)CN)C(=O)NCC(=O)N[C@H](CCCN)C(=O)N1CCC[C@H]1C(=O)N[C@@H](Cc1cn(C)cn1)C(=O)N[C@@H](CCCCN)C(=O)N/C(=C\CCNC(=N)N)C(=O)O [24.76] (H-K[Dab(3S-OH)]AG[dOrn]P[His(τ-Me)]K[ΔZArg]-OH) | − (>32 μg/mL) | − (>32 μg/mL) | + (≤32 μg/mL) | − (>32 μg/mL) | > 300 | – | –
9 | C[C@H](NC(=O)[C@@H](NC(=O)[C@@H](N)CCCCN)[C@@H](O)CN)C(=O)NCC(=O)N[C@H](CCCN)C(=O)N1CCC[C@H]1C(=O)N[C@@H](Cc1cccc(Cl)c1)C(=O)N[C@@H](CCCCN)C(=O)N/C(=C\CCNC(=N)N)C(=O)O [24.88] (H-K[Dab(3S-OH)]AG[dOrn]P[Phe(3-Cl)]K[ΔZArg]-OH) | − (>32 μg/mL) | ++ (≤8 μg/mL) | ++ (≤8 μg/mL) | − (>32 μg/mL) | > 300 | – | –
10 | C[C@H](NC(=O)[C@@H](NC(=O)[C@@H](N)CCCCN)[C@@H](O)CN)C(=O)NCC(=O)N[C@H](CCCN)C(=O)N1CCC[C@H]1C(=O)N[C@@H](Cc1ccc(C(C)(C)C)cc1)C(=O)N[C@@H](CCCCN)C(=O)N/C(=C\CCNC(=N)N)C(=O)O [24.93] (H-K[Dab(3S-OH)]AG[dOrn]P[Phe(4-tBu)]K[ΔZArg]-OH) | − (>32 μg/mL) | ++ (≤8 μg/mL) | ++ (≤8 μg/mL) | − (>32 μg/mL) | > 300 | – | –
11 | C[C@H](NC(=O)[C@@H](NC(=O)[C@@H](N)CCCCN)[C@@H](O)CN)C(=O)NCC(=O)N[C@H](CCCN)C(=O)N1CCC[C@H]1C(=O)N[C@@H](Cc1ccc(Cl)cc1)C(=O)N[C@@H](CCCCN)C(=O)N/C(=C\CCNC(=N)N)C(=O)O [24.97] (H-K[Dab(3S-OH)]AG[dOrn]P[Phe(4-Cl)]K[ΔZArg]-OH) | − (>32 μg/mL) | ++ (≤8 μg/mL) | ++ (≤8 μg/mL) | − (>32 μg/mL) | > 300 | – | –
12 | C[C@H](NC(=O)[C@@H](NC(=O)[C@@H](N)CCCCN)[C@@H](O)CN)C(=O)NCC(=O)N[C@H](CCCN)C(=O)N1CCC[C@H]1C(=O)N[C@@H](Cc1ccc(I)cc1)C(=O)N[C@@H](CCCCN)C(=O)N/C(=C\CCNC(=N)N)C(=O)O [24.103] (H-K[Dab(3S-OH)]AG[dOrn]P[Phe(4-I)]K[ΔZArg]-OH) | − (>32 μg/mL) | ++ (≤8 μg/mL) | ++ (≤8 μg/mL) | − (>32 μg/mL) | > 300 | – | –
13 | C[C@H](NC(=O)[C@@H](NC(=O)[C@@H](N)CCCCN)[C@@H](O)CN)C(=O)NCC(=O)N[C@H](CCCN)C(=O)N1CCC[C@H]1C(=O)N[C@@H](CC(N)=O)C(=O)N[C@@H](CCCCN)C(=O)N/C(=C\CCNC(=N)N)C(=O)O [24.112] (H-K[Dab(3S-OH)]AG[dOrn]PNK[ΔZArg]-OH) | − (>32 μg/mL) | − (>32 μg/mL) | + (≤32 μg/mL) | − (>32 μg/mL) | – | > 300 | 790
14 | C#CC[C@H](NC(=O)[C@@H]1CCCN1C(=O)[C@@H](CCCN)NC(=O)CNC(=O)[C@H](C)NC(=O)[C@@H](NC(=O)[C@@H](N)CCCCN)[C@@H](O)CN)C(=O)N[C@@H](CCCCN)C(=O)N/C(=C\CCNC(=N)N)C(=O)O [24.135] (H-K[Dab(3S-OH)]AG[dOrn]P[Pra]K[ΔZArg]-OH) | − (>32 μg/mL) | + (≤32 μg/mL) | + (≤32 μg/mL) | − (>32 μg/mL) | > 300 | – | –
15 | C[C@H](NC(=O)[C@@H](NC(=O)[C@@H](N)CCCCN)[C@@H](O)CN)C(=O)NCC(=O)N[C@H](CCCN)C(=O)N1CCC[C@H]1C(=O)N[C@@H](Cc1ccc(O)cc1)C(=O)N[C@@H](CCCCN)C(=O)N/C(=C\CCNC(=N)N)C(=O)O [24.138] (H-K[Dab(3S-OH)]AG[dOrn]PYK[ΔZArg]-OH) | − (>32 μg/mL) | + (≤32 μg/mL) | + (≤32 μg/mL) | − (>32 μg/mL) | > 300 | – | –
16 | C[C@H](O)[C@H](NC(=O)[C@@H](NC(=O)[C@@H](N)CCCCN)[C@@H](O)CN)C(=O)NCC(=O)N[C@H](CCCN)C(=O)N1CCC[C@H]1C(=O)N[C@@H](Cc1cnc[nH]1)C(=O)N[C@@H](CCCCN)C(=O)N/C(=C\CCNC(=N)N)C(=O)N[C@@H](CCCCN)C(=O)NCCCCN [25.1] (H-K[Dab(3S-OH)][aThr]G[dOrn]PHK[ΔZArg]K-{NH(CH2)4NH2}) | − (>32 μg/mL) | ++ (≤8 μg/mL) | ++ (≤8 μg/mL) | + (≤32 μg/mL) | – | < 30 | 3
